Consider two sequences from US9482666B2, “High throughput selection of specific cell binding and lytic polypeptides” (priority 2011, dated 2016).

Holding throughout (assay): Functional assay on peptide microarray (CTO/AF555 profile)
The subject of test [1] is S. aureus UAB637. It counts as cell-based, Staphylococcus aureus. To be noted: SA; CTO and AF555 labeled cells. From the text:
(§1) In order to make our technology more informative, we have developed a procedure for distinguishing those classes of peptides directly on the microarray (see FIG. 1c). Using the intracellular stain CTO we detected the first class (peptide-binders) and the third class (no activity). We decided to involve additional reference dye “Alexa Fluor-555” with an NHS ester active group that attack free amines present in membrane-bound proteins. It was expected, and subsequently shown, that peptide-binders should have signals dominated by both dyes on parallel arrays (profile CTO+AF+). In the case of peptides with killing activity, CTO should leak out of cells once the membrane is disrupted (profile CTO−AF+).
(§2) Before probing, the slides were treated with 90% TFA (trifluor-acetic acid) to get rid of non-immobilized peptides, blocking groups and probable organic impurities followed by DMF, ethanol and deionized water washing. […]
(§3) Turbidity of overnight cultures was measured at OD600. The CFU/ml value was calculated according to McFarland turbidity standard. […]
(§4) Microarrays were scanned by using a Perkin-Elmer ProScanArray HT Microarray Scanner with the 488, 543 and 633 nm excitation lasers at 100% power and 70% photomultiplier tube gain. […] All scanned images were analyzed by using GenePix Pro 6.0 software (Axon Instruments, Union City, Calif., USA). […]

Test [2] has as its system E. coli O111:B4. The class given is cell-based, Escherichia coli O111:B4. The conditions noted are these: EC; CTO and AF555 labeled cells.
From the text: as §1, §2, §3, §4

For test [3], the system named is B. subtilis. The class given is cell-based, Bacillus subtilis. The conditions noted are these: BS; CTO and AF555 labeled cells.
From the text: as §1, §2, §3, §4

The test system of test [4] is P. aeruginosa PAO-1. The class given is cell-based, Pseudomonas aeruginosa. The conditions noted are these: PA; CTO and AF555 labeled cells.
From the text: as §1, §2, §3, §4

The subject of test [5] is S. mutans UAB147. The class given is cell-based, Streptococcus mutans. The conditions noted are these: SM; CTO and AF555 labeled cells.
From the text: as §1, §2, §3, §4

Take DRIFHKMQHKPYKIKKRGSC: the “microarray profile (lytic / binder / no profile)” value in test [1] was “binder”; in test [2] it was “binder”; in test [3] it was “no profile”; in test [4], “lytic”; in test [5], “lytic”.
As to RWRRHKHFKRPHRKHKRGSC, the “microarray profile (lytic / binder / no profile)” value is given as “lytic” in test [1]; “no profile” in test [2]; “lytic” in test [3]; “lytic” in test [4]; “lytic” in test [5].
